This passage reports IC50 results from patent publication US12534452B2, “N-(1H-imidazol-2-yl)benzamide compound and pharmaceutical composition comprising the same as active ingredient” (KAINOS MEDICINE, INC., priority 2019, dated 2026).

A word on the IC50: it is the concentration that gives 50% inhibition. A low value points to greater potency in that assay.

The target in this test is IRAK4 (Homo sapiens (Human), UniProt Q9NWZ3). Briefly: In vitro IRAK4 phosphorylation activity assay. The class given is biochemical. As to conditions: [γ-33P]-ATP, myelin basic protein substrate, 40 minutes at room temperature; categories. The method in brief: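 Radiometric filter-binding assay, no compound–kinase preincubation; 8 mM MOPS pH 7.0, 0.2 mM EDTA, 10 mM Mg acetate, 0.33 mg/mL myelin basic protein substrate, [γ-33P]-ATP. Reaction 40 min at room temperature, stopped with phosphoric acid, scintillation counting; IC50 reported in categories.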
IRAK4, sequence (Q9NWZ3 whole entry): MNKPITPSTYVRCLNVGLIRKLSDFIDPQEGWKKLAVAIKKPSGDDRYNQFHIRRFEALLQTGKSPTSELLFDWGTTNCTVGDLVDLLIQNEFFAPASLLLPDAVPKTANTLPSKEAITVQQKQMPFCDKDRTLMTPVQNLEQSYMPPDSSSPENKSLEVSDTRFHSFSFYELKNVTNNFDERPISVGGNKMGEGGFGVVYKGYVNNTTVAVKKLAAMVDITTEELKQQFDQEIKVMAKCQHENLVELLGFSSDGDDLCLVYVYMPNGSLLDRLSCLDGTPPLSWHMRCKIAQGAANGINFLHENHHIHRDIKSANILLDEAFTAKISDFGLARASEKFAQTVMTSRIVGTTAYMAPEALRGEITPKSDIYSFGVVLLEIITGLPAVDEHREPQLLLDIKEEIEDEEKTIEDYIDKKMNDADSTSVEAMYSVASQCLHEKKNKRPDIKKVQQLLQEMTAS

On to `O=C(CCc1cn(-c2cccc(Br)c2)c(NC(=O)c2cccc(-c3cn[nH]c3)c2)n1)Nc1ccccc1` [Example 294, N-(1-(3-bromophenyl)-4-(3-oxo-3-(phenylamino)propyl)-1H-imidazol-2-yl)-3-(1H-pyrazol-4-yl)benzamide], for which the IC50 fell in the range of 0.05 to 0.1 µM. In the case of `Cn1cc(-c2cccc(C(=O)Nc3nc(CCCC(=O)N4CCN(Cc5ccc(OC(F)(F)F)cc5)CC4)cn3-c3ccccc3)c2)cn1` [Example 173, 3-(1-methyl-1H-pyrazol-4-yl)-N-(4-(4-oxo-4-(4-(4-(trifluoromethoxy)benzyl)piperazin-1-yl)butyl)-1-phenyl-1H-imidazol-2-yl)benzamide] it was 0.05 to 0.1 µM; in that of `Cn1cc(-c2cccc(C(=O)Nc3nc(CCCC(=O)N4CCC(O)CC4)cn3-c3ccccc3)c2)cn1` [Example 169, N-(4-(4-(4-hydroxypiperidin-1-yl)-4-oxobutyl)-1-phenyl-1H-imidazol-2-yl)-3-(1-methyl-1H-pyrazol-4-yl)benzamide], below 0.05 µM; in that of `CCN1CCN(C(=O)CCCc2cn(-c3ccccc3)c(NC(=O)c3cccc(-c4cnn(C)c4)c3)n2)CC1` [Example 144, N-(4-(4-(4-ethylpiperazin-1-yl)-4-oxobutyl)-1-phenyl-1H-imidazol-2-yl)-3-(1-methyl-1H-pyrazol-4-yl)benzamide], below 0.05 µM. `CN(C)C1CCN(C(=O)CCCc2cn(-c3ccccc3)c(NC(=O)c3cccc(-c4ccc5scnc5c4)c3)n2)CC1` [Example 282, 3-(benzo[d]thiazol-5-yl)-N-(4-(4-(4-(dimethylamino)piperidin-1-yl)-4-oxobutyl)-1-phenyl-1H-imidazol-2-yl)benzamide]: the IC50 is above 0.1 µM. As for `CNC(=O)Cc1cn(-c2ccccc2)c(NC(=O)c2ccc(-c3cn[nH]c3)cc2)n1` [Example 48, N-(4-(2-(methylamino)-2-oxoethyl)-1-phenyl-1H-imidazol-2-yl)-4-(1H-pyrazol-4-yl)benzamide], the IC50 is above 0.1 µM. `Cn1cc(-c2cccc(C(=O)Nc3nc(CCCC(=O)NC4CCC(O)CC4)cn3-c3ccccc3)c2)cn1` [Example 156, N-(4-(4-(((1R,4R)-4-hydroxycyclohexyl)amino)-4-oxobutyl)-1-phenyl-1H-imidazol-2-yl)-3-(1-methyl-1H-pyrazol-4-yl)benzamide] had an IC50 below 0.05 µM. With `C[C@@H]1CCC[C@H](C)N1C(=O)CCCCc1cn(-c2ccccc2)c(NC(=O)c2cccc(-c3cn[nH]c3)c2)n1` [Example 81, N-(4-(5-((2R,6S)-2,6-dimethylpiperidin-1-yl)-5-oxopentyl)-1-phenyl-1H-imidazol-2-yl)-3-(1H-pyrazol-4-yl)benzamide], the IC50 is below 0.05 µM. Take `CC(=O)N1CCN(C(=O)CCCc2cn(-c3ccccc3)c(NC(=O)c3cccc(-c4cnn(C)c4)c3)n2)CC1` [Example 205, N-(4-(4-(4-acetylpiperazin-1-yl)-4-oxobutyl)-1-phenyl-1H-imidazol-2-yl)-3-(1-methyl-1H-pyrazol-4-yl)benzamide]: the IC50 is below 0.05 µM. Molecule `O=C(Nc1nc(CCCCCCN2CCOCC2)cn1-c1ccccc1)c1cccc(-c2ccc3[nH]ncc3c2)c1` [Example 254, 3-(1H-indazol-5-yl)-N-(4-(6-morpholinohexyl)-1-phenyl-1H-imidazol-2-yl)benzamide] registered an IC50 below 0.05 µM. On to `Cn1cc(-c2cccc(C(=O)Nc3nc(CCCC(=O)N[C@H]4CC[C@H](N)CC4)cn3-c3ccccc3)c2)cn1` [Example 215, N-(4-(4-(((1R,4R)-4-aminocyclohexyl)amino)-4-oxobutyl)-1-phenyl-1H-imidazol-2-yl)-3-(1-methyl-1H-pyrazol-4-yl)benzamide], for which the IC50 is 0.05 to 0.1 µM. The molecule `O=C(CCCc1cn(-c2ccccc2)c(NC(=O)c2cccc(-c3ccc4cn[nH]c4c3)c2)n1)NC1CC1` [Example 250, N-(4-(4-(cyclopropylamino)-4-oxobutyl)-1-phenyl-1H-imidazol-2-yl)-3-(1H-indazol-6-yl)benzamide] yielded an IC50 below 0.05 µM.
